Reference: the NIST ThermoML archive (doi:10.1016/j.tca.2016.01.016)
Several values for one entry are separate records, joined by “and”; a condition that tells them apart may be missing. Equal values may be shown once. Numbers after ± are expanded uncertainties.

Test: molar heat capacity at constant pressure
Conditions: 101.33 kPa, Crystal, Small sample (50 mg) DSC

O=P([O-])([O-])[O-].[Er+3] [erbium phosphate]
Conditions | molar heat capacity at constant pressure
348.15 K | 113.7 ± 10 J/K/mol and 113.8 ± 9.2 J/K/mol
353.15 K | 114.5 ± 9.5 J/K/mol and 114.6 ± 9.3 J/K/mol
358.15 K | 115.2 ± 9.5 J/K/mol and 115.3 ± 9.4 J/K/mol
363.15 K | 115.9 ± 9.7 J/K/mol and 116.1 ± 9.4 J/K/mol
368.15 K | 116.4 ± 10 J/K/mol and 116.8 ± 9.5 J/K/mol
373.15 K | 116.8 ± 11 J/K/mol and 117.4 ± 9.5 J/K/mol
378.15 K | 117.4 ± 12 J/K/mol and 118.1 ± 9.6 J/K/mol
383.15 K | 118.1 ± 12 J/K/mol and 118.8 ± 9.7 J/K/mol
388.15 K | 119.1 ± 12 J/K/mol and 119.4 ± 9.7 J/K/mol
393.15 K | 119.9 ± 12 J/K/mol and 120 ± 9.7 J/K/mol
398.15 K | 120.7 ± 12 J/K/mol and 120.6 ± 9.8 J/K/mol
403.15 K | 121.5 ± 11 J/K/mol and 121.2 ± 9.8 J/K/mol
408.15 K | 122.2 ± 11 J/K/mol and 121.8 ± 9.9 J/K/mol
413.15 K | 122.9 ± 11 J/K/mol and 122.4 ± 9.9 J/K/mol
418.15 K | 123.5 ± 11 J/K/mol and 123 ± 10 J/K/mol
423.15 K | 124 ± 11 J/K/mol and 123.5 ± 10 J/K/mol
428.15 K | 124.5 ± 12 J/K/mol and 124.1 ± 10 J/K/mol
433.15 K | 125 ± 12 J/K/mol and 124.6 ± 10 J/K/mol
438.15 K | 125.4 ± 12 J/K/mol and 125.1 ± 10 J/K/mol
443.15 K | 125.9 ± 12 J/K/mol and 125.6 ± 10 J/K/mol
448.15 K | 126.4 ± 12 J/K/mol and 126.1 ± 10 J/K/mol
453.15 K | 126.9 ± 12 J/K/mol and 126.6 ± 10 J/K/mol
458.15 K | 127.4 ± 12 J/K/mol and 127.1 ± 10 J/K/mol
463.15 K | 127.8 ± 12 J/K/mol and 127.6 ± 10 J/K/mol
468.15 K | 128.2 ± 13 J/K/mol and 128 ± 10 J/K/mol
473.15 K | 128.7 ± 13 J/K/mol and 128.5 ± 10 J/K/mol
478.15 K | 129.1 ± 13 J/K/mol and 129 ± 10 J/K/mol
483.15 K | 129.5 ± 13 J/K/mol and 129.4 ± 10 J/K/mol
488.15 K | 129.9 ± 13 J/K/mol and 129.8 ± 10 J/K/mol
493.15 K | 130.3 ± 13 J/K/mol and 130.3 ± 11 J/K/mol
498.15 K | 130.7 ± 13 J/K/mol and 130.7 ± 11 J/K/mol
503.15 K | 131.1 ± 13 J/K/mol and 131.1 ± 11 J/K/mol
508.15 K | 131.5 ± 13 J/K/mol and 131.5 ± 11 J/K/mol
513.15 K | 132 ± 13 J/K/mol and 131.9 ± 11 J/K/mol
518.15 K | 132.4 ± 13 J/K/mol and 132.3 ± 11 J/K/mol
523.15 K | 132.8 ± 13 J/K/mol and 132.7 ± 11 J/K/mol
528.15 K | 133.2 ± 12 J/K/mol and 133.1 ± 11 J/K/mol
533.15 K | 133.6 ± 12 J/K/mol and 133.4 ± 11 J/K/mol
538.15 K | 134 ± 12 J/K/mol and 133.8 ± 11 J/K/mol
543.15 K | 134.5 ± 12 J/K/mol and 134.2 ± 11 J/K/mol
548.15 K | 134.8 ± 12 J/K/mol and 134.5 ± 11 J/K/mol
553.15 K | 135.1 ± 12 J/K/mol and 134.9 ± 11 J/K/mol
558.15 K | 135.4 ± 12 J/K/mol and 135.2 ± 11 J/K/mol
563.15 K | 135.8 ± 12 J/K/mol and 135.6 ± 11 J/K/mol
568.15 K | 136.1 ± 12 J/K/mol and 135.9 ± 11 J/K/mol
573.15 K | 136.3 ± 12 J/K/mol and 136.2 ± 11 J/K/mol
578.15 K | 136.6 ± 12 J/K/mol and 136.6 ± 11 J/K/mol
583.15 K | 136.9 ± 12 J/K/mol and 136.9 ± 11 J/K/mol
588.15 K | 137.2 ± 12 J/K/mol and 137.2 ± 11 J/K/mol
593.15 K | 137.5 ± 12 J/K/mol and 137.5 ± 11 J/K/mol
598.15 K | 137.8 ± 12 J/K/mol and 137.8 ± 11 J/K/mol
603.15 K | 138 ± 12 J/K/mol and 138.1 ± 11 J/K/mol
608.15 K | 138.3 ± 12 J/K/mol and 138.4 ± 11 J/K/mol
613.15 K | 138.6 ± 12 J/K/mol and 138.7 ± 11 J/K/mol
618.15 K | 138.8 ± 12 J/K/mol and 139 ± 11 J/K/mol
623.15 K | 139 ± 12 J/K/mol and 139.3 ± 11 J/K/mol
628.15 K | 139.3 ± 12 J/K/mol and 139.6 ± 11 J/K/mol
633.15 K | 139.6 ± 12 J/K/mol and 139.9 ± 11 J/K/mol
638.15 K | 139.8 ± 12 J/K/mol and 140.2 ± 11 J/K/mol
643.15 K | 140.1 ± 12 J/K/mol and 140.4 ± 11 J/K/mol
648.15 K | 140.3 ± 12 J/K/mol and 140.7 ± 11 J/K/mol
653.15 K | 140.6 ± 11 J/K/mol and 141 ± 12 J/K/mol
658.15 K | 140.9 ± 11 J/K/mol and 141.3 ± 12 J/K/mol
663.15 K | 141.2 ± 11 J/K/mol and 141.5 ± 12 J/K/mol
668.15 K | 141.4 ± 11 J/K/mol and 141.8 ± 12 J/K/mol
673.15 K | 141.6 ± 10 J/K/mol and 142 ± 12 J/K/mol
678.15 K | 141.8 ± 10 J/K/mol and 142.3 ± 12 J/K/mol
683.15 K | 142.1 ± 9.8 J/K/mol and 142.5 ± 12 J/K/mol
688.15 K | 142.3 ± 9.4 J/K/mol and 142.8 ± 12 J/K/mol
693.15 K | 142.6 ± 9.2 J/K/mol and 143 ± 12 J/K/mol
698.15 K | 142.9 ± 8.8 J/K/mol and 143.3 ± 12 J/K/mol
703.15 K | 143.1 ± 8.4 J/K/mol and 143.5 ± 12 J/K/mol
708.15 K | 143.5 ± 8.3 J/K/mol and 143.8 ± 12 J/K/mol
713.15 K | 143.7 ± 8.1 J/K/mol and 144 ± 12 J/K/mol
718.15 K | 143.9 ± 7.9 J/K/mol and 144.2 ± 12 J/K/mol
723.15 K | 144.2 ± 7.7 J/K/mol and 144.4 ± 12 J/K/mol
728.15 K | 144.4 ± 7.5 J/K/mol and 144.7 ± 12 J/K/mol
733.15 K | 144.6 ± 7.5 J/K/mol and 144.9 ± 12 J/K/mol
738.15 K | 144.8 ± 7.5 J/K/mol and 145.1 ± 12 J/K/mol
743.15 K | 145 ± 7.5 J/K/mol and 145.3 ± 12 J/K/mol
748.15 K | 145.2 ± 7.5 J/K/mol and 145.6 ± 12 J/K/mol
753.15 K | 145.5 ± 7.3 J/K/mol and 145.8 ± 12 J/K/mol
758.15 K | 145.8 ± 7.1 J/K/mol and 146 ± 12 J/K/mol
763.15 K | 146.1 ± 6.9 J/K/mol and 146.2 ± 12 J/K/mol
768.15 K | 146.3 ± 6.7 J/K/mol and 146.4 ± 12 J/K/mol
773.15 K | 146.5 ± 6.5 J/K/mol and 146.6 ± 12 J/K/mol
778.15 K | 146.8 ± 6.3 J/K/mol and 146.8 ± 12 J/K/mol
783.15 K | 147 ± 6.2 J/K/mol and 147 ± 12 J/K/mol
788.15 K | 147.2 ± 6 J/K/mol and 147.2 ± 12 J/K/mol
793.15 K | 147.5 ± 5.6 J/K/mol and 147.4 ± 12 J/K/mol
798.15 K | 147.8 ± 5.4 J/K/mol and 147.6 ± 12 J/K/mol
803.15 K | 148 ± 5.2 J/K/mol and 147.8 ± 12 J/K/mol
808.15 K | 148.2 ± 5.1 J/K/mol and 148 ± 12 J/K/mol
813.15 K | 148.5 ± 5.1 J/K/mol and 148.2 ± 12 J/K/mol
818.15 K | 148.7 ± 4.9 J/K/mol and 148.4 ± 12 J/K/mol
823.15 K | 148.9 ± 4.9 J/K/mol and 148.5 ± 12 J/K/mol
828.15 K | 149.1 ± 4.7 J/K/mol and 148.7 ± 12 J/K/mol
833.15 K | 149.3 ± 4.7 J/K/mol and 148.9 ± 12 J/K/mol
838.15 K | 149.5 ± 4.7 J/K/mol and 149.1 ± 12 J/K/mol
843.15 K | 149.7 ± 4.5 J/K/mol and 149.3 ± 12 J/K/mol
848.15 K | 149.9 ± 4.4 J/K/mol and 149.5 ± 12 J/K/mol
853.15 K | 150.2 ± 4.5 J/K/mol and 149.6 ± 12 J/K/mol
858.15 K | 150.3 ± 4.5 J/K/mol and 149.8 ± 12 J/K/mol
863.15 K | 150.5 ± 4.5 J/K/mol and 150 ± 12 J/K/mol
868.15 K | 150.8 ± 4.7 J/K/mol and 150.1 ± 12 J/K/mol
